The record followed here is patent US9192640B2, “Antiviral composition against flavivirus” (University Malaya, priority 2012, dated 2015).

In brackets after ≈: the same amount, converted by molar mass.

What all share (format): cell-based
For assay [1], the system named is dengue virus type-2 (DENV-2). Put plainly: Direct virucidal activity against DENV-2. The protocol:
(§1) In order to determine the prophylactic anti-dengue activity of baicalein, different concentrations of baicalein (6.25 μg/ml, 12.50 μg/ml, 25.0 μg/ml, and 50.0 μg/ml) were added to the Vero cell monolayers five hours before adding virus. After five hours of pre-infection treatment, the cells were washed twice with phosphate-buffered saline (PBS). Then, 200 FFU (focus-forming units) of dengue virus type-2 (DENV-2) was inoculated to the cells to produce infected cells. The infected cells were incubated at 37° C. for one hour. Then the infected cells were washed two times with PBS to eliminate the unadsorped viruses. Growth medium (the growing medium is but not limited to Eagle's minimal essential medium; EMEM) was supplemented with 2% fetal bovine serum (FBS), 1 mM non-essential amino acid solution, 1 mM L-glutamine solution, and 1.5% carboxymethyl cellulose (CMC) solution) was added to the infected cells in the microplate. The microplate was incubated at 37° C. for four days. The number of viral foci formed and the viral RNA level were determined. The prophylactic activity of baicalein against DENV-2 was measured by the decrease in the number of viral foci and reduction of viral RNA synthesis. The number of DENV-2 foci was counted using a stereomicroscope and the titer of virus was expressed as FFU. The percentage of foci reduction (RF %) compared against controls was calculated as follows: RF (%)=(C−T)×100/C, where, C is the mean of the number of foci for negative control (without baicalein) and T is the mean of the number of foci in treated wells. Reduction in the number of viral foci was further verified using quantitative RT-PCR (qRT-PCR) which determine the copy number of dengue virus specific RNA. […]
In order to determine the direct virucidal activity of baicalein against DENV-2, DENV-2 suspension containing 200 FFU was incubated with different concentrations of baicalein (1.56 μg/ml, 3.12 μg/ml, 6.25 μg/ml, 12.50 μg/ml, 25.0 μg/ml) at 37° C. for two hours to produce a treated viral suspension. […] The number of viral foci formed and the viral RNA level were determined.

Assay [2] deals with Japanese encephalitis virus. Put plainly: Antiviral activity on Japanese encephalitis virus replication, baicalein added post-infection. The settings on record: 50 μg/ml, added post-infection to Vero cells, two days, vs non-treated cells. The procedure: In order to evaluate the antiviral activity of baicalein after virus attachment to cells, virus inoculum consisting of 200 FFU JE was added to the monolayer Vero cells and the virus was allowed to adsorp to the Vero cells for one hour at a temperature of 37° C. Unadsorped viruses were removed by rinsing the Vero cells with sterile PBS for two times. Different concentrations of baicalein (12.5 μg/ml, 25.0 μg/ml, 50.0 μg/ml and 100.0 μg/ml) were mixed with 1.5% CMC containing cell-growth medium supplemented with 2% FBS respectively before incubated at 37° C. for two days. Then, the number of viral foci was determined.

Assay [3] relates to dengue virus type-2 (DENV-2). The assay is described as follows: Inhibition of DENV-2 attachment to host cells, baicalein added simultaneously with virus. The procedure: (§2) In order to determine the prophylactic anti-dengue activity of baicalein, different concentrations of baicalein (6.25 μg/ml, 12.50 μg/ml, 25.0 μg/ml, and 50.0 μg/ml) were added to the Vero cell monolayers five hours before adding virus. After five hours of pre-infection treatment, the cells were washed twice with phosphate-buffered saline (PBS). Then, 200 FFU (focus-forming units) of dengue virus type-2 (DENV-2) was inoculated to the cells to produce infected cells. The infected cells were incubated at 37° C. for one hour. Then the infected cells were washed two times with PBS to eliminate the unadsorped viruses. Growth medium (the growing medium is but not limited to Eagle's minimal essential medium; EMEM) was supplemented with 2% fetal bovine serum (FBS), 1 mM non-essential amino acid solution, 1 mM L-glutamine solution, and 1.5% carboxymethyl cellulose (CMC) solution) was added to the infected cells in the microplate. The microplate was incubated at 37° C. for four days. The number of viral foci formed and the viral RNA level were determined. The prophylactic activity of baicalein against DENV-2 was measured by the decrease in the number of viral foci and reduction of viral RNA synthesis. The number of DENV-2 foci was counted using a stereomicroscope and the titer of virus was expressed as FFU. The percentage of foci reduction (RF %) compared against controls was calculated as follows: RF (%)=(C−T)×100/C, where, C is the mean of the number of foci for negative control (without baicalein) and T is the mean of the number of foci in treated wells. Reduction in the number of viral foci was further verified using quantitative RT-PCR (qRT-PCR) which determine the copy number of dengue virus specific RNA. The same procedure was repeated to Vero cells which were treated with only virus suspension without baicalein (non-treated cells) and this served as the untreated control.
Inhibition of DENV-2 attachment to host cells was evaluated by adding different concentrations (3.12 μg/ml, 6.25 μg/ml, 12.5 μg/ml, 25.0 μg/ml, and 50.0 μg/ml) of baicalein to Vero cells simultaneously with 200 FFU DENV-2. Then, the infected Vero cells were incubated at 37° C. for one hour in the presence of the respective concentration of baicalein. Following after, the infected Vero cells were washed two times using sterile PBS. Growth medium supplemented with 2% fetal bovine serum (FBS), 1 mM non-essential amino acid solution, 1 mM L-glutamine solution, and 1.5% carboxymethyl cellulose (CMC) solution) was added to the infected cells in the microplate. […] The number of viral foci formed and the viral RNA level were determined. The amount of viral RNA synthesis was determined using quantitative real time polymerase chain reaction amplification (qRT-PCR).

Assay [4] concerns dengue virus type-2 (DENV-2). Put plainly: Antiviral activity on DENV-2 replication, baicalein added post-infection. The procedure:
as §1
In order to evaluate the antiviral activity of baicalein after virus attachment to cells, virus inoculum consisting of 200 FFU DENV-2 was added to the monolayer Vero cells and the virus was allowed to adsorp to the Vero cells for one hour at a temperature of 37° C. […] Then, the number of viral foci and viral RNA level were measured.

The subject of assay [5] is dengue virus type-2 (DENV-2). The assay is described as follows: Prophylactic anti-dengue activity, pre-treatment of Vero cells (foci reduction and qRT-PCR). The protocol: as §2
The mark [6] stands for this setting: 12.5 μg/ml, DENV-2 suspension incubated with baicalein at 37° C. for two hours before infecting Vero cells.
[7] abbreviates: 50 μg/ml, added after virus adsorption to Vero cells, four days, vs non-treated cells.

As to `O=c1cc(-c2ccccc2)oc2cc(O)c(O)c(O)c12` [baicalein, 5,6,7-Trihydroxyflavone], the “decrease in level of DENV-2 RNA production” value in assay [1] (setting [6]) was 99.2%±0.4; in assay [3] (25 μg/ml, added simultaneously with DENV-2 to Vero cells, qRT-PCR, vs non-treated cells), 90.3%±1.6; in assay [4] (setting [7]), 84.9%±2.15. The “reduction in number of dengue virus foci formed” value is on record as 97.93% in assay [1] (setting [6]); 76.6% in assay [3] (25 μg/ml, added simultaneously with DENV-2 to Vero cells, vs non-treated cells); 78.3% in assay [4] (setting [7]); around 37% in assay [5] (50 μg/ml, Vero cells pre-treated five hours before infection, vs non-treated cells). For the same compound, the half-inhibitory concentration (IC50) in assay [1] (Dengue virus, DENV2, 2 h) came to 1.55 µg/mL (≈ 5.74 µM); in assay [3] (Dengue virus, DENV2, Vero) it was 7.14 µg/mL (≈ 26.4 µM); in assay [4] (Dengue virus, DENV2, Vero), 6.46 µg/mL (≈ 23.9 µM); in assay [5] (Dengue virus, DENV2, Vero, read-out: IC50 in pretreatment of cells), 109 µg/mL (≈ 403 µM). In addition, the “reduction in number of Japanese encephalitis virus foci formed” value in assay [2] was above 90%. Besides, the “decrease in DENV-2 RNA level at 50 μg/ml compared with 25 μg/ml” value in assay [3] (50 μg/ml, added simultaneously with DENV-2) is “Higher decrease in RNA level was observed”. In assay [5] (50 μg/ml, Vero cells pre-treated five hours before infection, qRT-PCR, vs non-treated cells), the “reduction in level of dengue virus type-2 RNA production” value is listed as 39.5%±0.8.
